Data set [1] deals with SMN2 minigene (full length SMN2 minigene mRNA containing SMN2 exon 7). In words: SMN2 minigene mRNA splicing RT-qPCR assay in cultured cells. Type of data set: cell-based, human. Conditions: Homo sapiens, HEK293-H; HEK293H cells stably transfected with SMN2-A minigene; 24 hours; 7-point concentration curve; 1.5-fold relative to vehicle-treated cells; read-out: EC1.5x for production of full length SMN2 mRNA. The method, boiled down:
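HEK293H cells stably carrying the SMN2-A minigene treated 24 h at 37° C with compound (DMSO, 200× stock), then lysed. Multiplex RT-qPCR (SMN primers 0.4 μM final; 40 cycles) measures full-length exon 7-containing minigene mRNA, normalized to GAPDH and to vehicle; EC1.5x derived and binned by stars.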

Data set [2] concerns Smn protein. In words: Smn protein assay in cultured cells (SMN HTRF). Type of data set: cell-based, human. The settings on record: 48 hours; for EC1.5x (concentration giving 1.5-fold Smn protein increase): SMA Type 1 patient fibroblast cells (GM03813), 7-point concentration curve, SMN HTRF, concentration producing 1.5 times Smn protein vs DMSO vehicle control, read-out: EC1.5x for Smn protein expression; for maximum fold (Fold) increase of Smn protein: SMA patient fibroblast cells, 7-point concentration data, fold increase relative to vehicle control (SMN HTRF). Put shortly:
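Lysates in RIPA with protease inhibitors are incubated overnight at room temperature with HTRF anti-SMN antibodies. EC1.5x is derived from fold increase in ΔF over vehicle.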
On the technique in general: In TR-FRET formats the signal depends on donor and acceptor labels being close together.

Some results are limits rather than exact numbers.

The melting point is the temperature of the solid-liquid transition.

`Cc1cn2cc(-c3cc4ccc(CCCN5CCN(C)CC5)cc4oc3=O)nc2c(C)n1` [Compound 860, 3-(6,8-dimethylimidazo[1,2-a]pyrazin-2-yl)-7-[3-(4-methylpiperazin-1-yl)propyl]-2H-chromen-2-one] returned a melting point of 219 to 223 °C. Moreover, the EC (1.5-fold) in data set [1] was 0.3 to 1 µM. Further, in data set [2], the EC1.5x (concentration giving 1.5-fold Smn protein increase) lay within 1000 to 3000 nM; the “maximum fold (Fold) increase of Smn protein” value (“maximum fold (Fold) increase” below) was “**** (fold increase between >1.5 and ≤1.65)”.
In turn, `Cc1cn2cc(-c3cc4ccc(N5CCC(N(C)C)CC5)cc4oc3=O)cc2c(C)n1` [Compound 715, 7-[4-(dimethylamino)piperidin-1-yl]-3-(1,3-dimethylpyrrolo[1,2-a]pyrazin-7-yl)-2H-chromen-2-one] displayed a melting point of 192 to 195 °C. For the same molecule, the EC (1.5-fold) in data set [1] was less than 0.1 µM. The “maximum fold (Fold) increase” value in data set [2] was “** (fold increase between >1.2 and ≤1.35)”.
The molecule `C[C@@H]1CN(c2cc(F)c3cc(-c4nc5c(F)cccc5o4)c(=O)oc3c2)C[C@H](C)N1` [Compound 367, 7-[(3R,5S)-3,5-dimethylpiperazin-1-yl]-5-fluoro-3-(4-fluoro-1,3-benzoxazol-2-yl)-2H-chromen-2-one] showed a melting point of 268 to 272 °C. For the same molecule, in data set [1], the EC (1.5-fold) lay within 0.1 to 0.3 µM. For the same molecule, the “maximum fold (Fold) increase” value in data set [2] is “*** (fold increase between >1.35 and ≤1.5)”.
With `Cc1nccn2cc(-c3cc4ccc(N5CCN(C)CC5)cc4oc3=O)cc12` [Compound 557, 7-(4-methylpiperazin-1-yl)-3-(1-methylpyrrolo[1,2-a]pyrazin-7-yl)-2H-chromen-2-one], the melting point is 190 to 192 °C. Further, in data set [1], the EC (1.5-fold) was in the range of 0.3 to 1 µM. For the same molecule, the “maximum fold (Fold) increase” value in data set [2] is “*** (fold increase between >1.35 and ≤1.5)”.
The molecule `CCN(CC)CCOc1ccc2cc(-c3cn4cc(C)nc(C)c4n3)c(=O)oc2c1` [Compound 895, 7-[2-(diethylamino)ethoxy]-3-(6,8-dimethylimidazo[1,2-a]pyrazin-2-yl)-2H-chromen-2-one] registered a melting point of 175 to 177 °C. Also, the EC (1.5-fold) in data set [1] was less than 0.1 µM. For the same molecule, in data set [2], the EC1.5x (concentration giving 1.5-fold Smn protein increase) is less than 300 nM and the “maximum fold (Fold) increase” value is on record as “***** (fold increase >1.65)”.
Taken in the same sequence, the figures for `Cc1cn2cc(-c3cc4ccc(OC5CCN(CCO)CC5)cc4oc3=O)nc2c(C)n1` [Compound 899, 3-(6,8-dimethylimidazo[1,2-a]pyrazin-2-yl)-7-{[1-(2-hydroxyethyl)piperidin-4-yl]oxy}-2H-chromen-2-one] were 165 to 168 °C, less than 0.1 µM, less than 300 nM and “***** (fold increase >1.65)”.
Taken in the same sequence, the figures for `Cc1cn2cc(-c3cc4ccc(C5CCN(C6CCC6)CC5)cc4oc3=O)nc2cn1` [Compound 869, 7-(1-cyclobutylpiperidin-4-yl)-3-(6-methylimidazo[1,2-a]pyrazin-2-yl)-2H-chromen-2-one] were 256 to 268 °C, less than 0.1 µM, less than 300 nM and “***** (fold increase >1.65)”.
With `COc1ccc(-c2cc3ccc(N4CCN[C@H](C)C4)cc3oc2=O)cc1OC` [Compound 382, 3-(3,4-dimethoxyphenyl)-7-[(3R)-3-methylpiperazin-1-yl]-2H-chromen-2-one], the melting point is 143 to 145 °C. Also, the EC (1.5-fold) in data set [1] is 1 to 3 µM. Further, the “maximum fold (Fold) increase” value in data set [2] was “* (maximum fold increase of ≤1.2)”.
The molecule `C[C@@H]1CN(c2ccc3cc(-c4cn5ccc(C(F)(F)F)cc5n4)c(=O)oc3c2)C[C@H](C)N1C` [Compound 168, 3-[7-(trifluoromethyl)imidazo[1,2-a]pyridin-2-yl]-7-[(3R,5S)-3,4,5-trimethylpiperazin-1-yl]-2H-chromen-2-one] had a melting point of 267 to 275 °C. In addition, the EC (1.5-fold) in data set [1] lay in the range of 1 to 3 µM. Further, the “maximum fold (Fold) increase” value in data set [2] is on record as “* (maximum fold increase of ≤1.2)”.
In the case of `CN1CCCN(c2cc(F)c3cc(-c4cn5cccnc5n4)c(=O)oc3c2)CC1` [Compound 335, 5-fluoro-3-(imidazo[1,2-a]pyrimidin-2-yl)-7-(4-methyl-1,4-diazepan-1-yl)-2H-chromen-2-one], the melting point was in the range of 300 to 302 °C. Further, the EC (1.5-fold) in data set [1] lay within 0.1 to 0.3 µM. In data set [2], the EC1.5x (concentration giving 1.5-fold Smn protein increase) fell in the range of 1000 to 3000 nM; the “maximum fold (Fold) increase” value is “*** (fold increase between >1.35 and ≤1.5)”.
`Cc1cn2cc(-c3cc4ccc(OCCN5CCCCC5)cc4oc3=O)nc2c(C)n1` [Compound 953, 3-(6,8-dimethylimidazo[1,2-a]pyrazin-2-yl)-7-[2-(piperidin-1-yl)ethoxy]-2H-chromen-2-one] came in with a melting point of 178 to 190 °C. The EC (1.5-fold) in data set [1] is less than 0.1 µM. In data set [2], the EC1.5x (concentration giving 1.5-fold Smn protein increase) is less than 300 nM; the “maximum fold (Fold) increase” value was “**** (fold increase between >1.5 and ≤1.65)”.
As for `Cc1cn2cc(-c3cc4ccc(N5CCN6CCC[C@@H]6C5)cc4oc3=O)cc2c(C)n1` [Compound 669, 3-(1,3-dimethylpyrrolo[1,2-a]pyrazin-7-yl)-7-[(8aR)-hexahydropyrrolo[1,2-a]pyrazin-2(1H)-yl]-2H-chromen-2-one], the melting point lay in the range of 170 to 173 °C. Moreover, the EC (1.5-fold) in data set [1] is less than 0.1 µM. Also, in data set [2], the EC1.5x (concentration giving 1.5-fold Smn protein increase) is less than 300 nM and the “maximum fold (Fold) increase” value is “***** (fold increase >1.65)”.
In turn, `Cc1cn2cc(-c3cc4ccc(N5C[C@H]6CCN(C)[C@H]6C5)cc4oc3=O)nc2c(C)n1` [Compound 704, 3-(6,8-dimethylimidazo[1,2-a]pyrazin-2-yl)-7-[(3aR,6aR)-1-methylhexahydropyrrolo[3,4-b]pyrrol-5(1H)-yl]-2H-chromen-2-one] showed a melting point of 255 to 263 °C. Also, in data set [1], the EC (1.5-fold) was less than 0.1 µM. In data set [2], the EC1.5x (concentration giving 1.5-fold Smn protein increase) is less than 300 nM; the “maximum fold (Fold) increase” value was “**** (fold increase between >1.5 and ≤1.65)”.
As to `Cc1cc(C)c2nc(-c3cc4ccc(N5CCN(C)CC5)cc4oc3=O)cn2c1` [Compound 261, 3-(6,8-dimethylimidazo[1,2-a]pyridin-2-yl)-7-(4-methylpiperazin-1-yl)-2H-chromen-2-one], the melting point is 232 to 238 °C. Further, the EC (1.5-fold) in data set [1] was 0.3 to 1 µM. Besides, the “maximum fold (Fold) increase” value in data set [2] is “** (fold increase between >1.2 and ≤1.35)”.
Molecule `Cc1ccn2cc(-c3cc4ccc(N5CCN[C@H](C)C5)cc4oc3=O)nc2c1` [Compound 214, 3-(7-methylimidazo[1,2-a]pyridin-2-yl)-7-[(3R)-3-methylpiperazin-1-yl]-2H-chromen-2-one] came in with a melting point of 222 °C. The EC (1.5-fold) in data set [1] was in the range of 0.3 to 1 µM. Moreover, the “maximum fold (Fold) increase” value in data set [2] is “** (fold increase between >1.2 and ≤1.35)”.
`CC(=O)O.CC(=O)O.CC[C@H]1CN(c2ccc3cc(-c4cn5cc(C)nc(C)c5n4)c(=O)oc3c2)CCN1CC` [Compound 779, 7-[(3S)-3,4-diethylpiperazin-1-yl]-3-(6,8dimethylimidazo[1,2-a]pyrazin-2-yl)-2H-chromen-2-one acetate (1:2)] gave a melting point of 170 to 174 °C. Moreover, the EC (1.5-fold) in data set [1] is less than 0.1 µM. For the same molecule, in data set [2], the EC1.5x (concentration giving 1.5-fold Smn protein increase) is less than 300 nM and the “maximum fold (Fold) increase” value is recorded as “***** (fold increase >1.65)”.

Source of the values: patent USRE47689E1, “Compounds for treating spinal muscular atrophy” (PTC Therapeutics, Inc., priority 2011, dated 2019).
